What follows are compounds tested on influx of neutrophils to the lung in LPS-challenged rats (assay: Rat LPS neutrophilia model). Settings: intratracheal, LPS aerosol 100 ug/ml, in at least one of the range of conditions tested, significance p<0.05.
Format: in vivo
How it was run: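 Compound given intratracheally (200 ul suspension, or dry powder blend) to isoflurane-anesthetized rats 15 min–24 hours before 15 min exposure to LPS aerosol (100 ug/ml). Four hours later, bronchoalveolar lavage cells were counted differentially. Data are % inhibition of neutrophils versus no-compound controls at a given concentration and pretreat time.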

SMILES | inhibition of neutrophilia (neutrophil levels in airway lavage relative to no compound controls)
Cc1ccc(C(=O)NC2CC2)cc1-c1nc(N2CCC(N)CC2)nc2c1ccc(=O)n2-c1c(F)cccc1F [Example 22, 3-[2-(4-amino-1-piperidinyl)-8-(2,6-difluorophenyl)-7-oxo-7,8-dihydropyrido[2,3-d]pyrimidin-4-yl]-N-cyclopropyl-4-methylbenzamide] | statistically significant inhibition of neutrophilia
Cc1ccc(C(=O)NC2CCC2)cc1-c1nc(N2CCC(N3CCC(C)CC3)CC2)nc2c1ccc(=O)n2-c1c(F)cccc1F [Example 175, N-cyclobutyl-3-[8-(2,6-difluorophenyl)-2-(4-methyl-1,4′-bipiperidin-1′-yl)-7-oxo-7,8-dihydropyrido[2,3-d]pyrimidin-4-yl]-4-methylbenzamide] | inactive
Cc1ccc(C(=O)NC(C)C)cc1-c1nc(N(C)CCCN(C)C)nc2c1ccc(=O)n2-c1c(F)cccc1F [Example 34, 3-{8-(2,6-difluorophenyl)-2-[[3-(dimethylamino)propyl](methyl)amino]-7-oxo-7,8-dihydropyrido[2,3-d]pyrimidin-4-yl}-4-methyl-N-(1-methylethyl)benzamide] | statistically significant inhibition of neutrophilia
Cc1ccc(C(=O)Nc2ccc(F)cc2)cc1-c1nc(N(C)CCN(C)C)nc2c1ccc(=O)n2-c1c(F)cccc1F [Example 99, 3-{8-(2,6-difluorophenyl)-2-[[2-(dimethylamino)ethyl](methyl)amino]-7-oxo-7,8-dihydropyrido[2,3-d]pyrimidin-4-yl}-N-(4-fluorophenyl)-4-methylbenzamide] | statistically nonsignificant inhibition of neutrophilia
Cc1ccc(C(=O)NC(C)C)cc1-c1nc(NCCN(C)C)nc2c1ccc(=O)n2-c1c(F)cccc1F [Example 117, 3-(8-(2,6-difluorophenyl)-2-{[2-(dimethylamino)ethyl]amino}-7-oxo-7,8-dihydropyrido[2,3-d]pyrimidin-4-yl)-4-methyl-N-(1-methylethyl)benzamide] | statistically significant inhibition of neutrophilia
CNCCNc1nc(-c2cc(C(=O)NCC3CC3)ccc2C)c2ccc(=O)n(-c3c(F)cccc3F)c2n1 [Example 4] | statistically significant inhibition of neutrophilia
Cc1ccc(C(=O)NC2CC2)cc1-c1nc(NCc2ncc[nH]2)nc2c1ccc(=O)n2-c1c(F)cccc1F [Example 23, N-cyclopropyl-3-{8-(2,6-difluorophenyl)-2-[(1H-imidazol-2-ylmethyl)amino]-7-oxo-7,8-dihydropyrido[2,3-d]pyrimidin-4-yl}-4-methylbenzamide] | statistically nonsignificant inhibition of neutrophilia
Cc1ccc(C(=O)NCC(F)(F)F)cc1-c1nc(N2CCC(N3CCC(C)CC3)CC2)nc2c1ccc(=O)n2-c1c(F)cccc1F [Example 172, 3-[8-(2,6-difluorophenyl)-2-(4-methyl-1,4′-bipiperidin-1′-yl)-7-oxo-7,8-dihydropyrido[2,3-d]pyrimidin-4-yl]-4-methyl-N-(2,2,2-trifluoroethyl)benzamide] | inactive
CCN(CC)CCCNc1nc(-c2cc(C(=O)N[C@@H](C)c3ccccc3)ccc2C)c2ccc(=O)n(-c3c(F)cccc3F)c2n1 [Example 149, 3-[2-{[3-(diethylamino)propyl]amino}-8-(2,6-difluorophenyl)-7-oxo-7,8-dihydropyrido[2,3-d]pyrimidin-4-yl]-4-methyl-N-[(1S)-1-phenylethyl]benzamide] | inactive
CCCNC(=O)c1ccc(C)c(-c2nc(NCCN(C)C)nc3c2ccc(=O)n3-c2c(F)cccc2F)c1 [Example 105, 3-(8-(2,6-difluorophenyl)-2-{[2-(dimethylamino)ethyl]amino}-7-oxo-7,8-dihydropyrido[2,3-d]pyrimidin-4-yl)-4-methyl-N-propylbenzamide] | statistically significant inhibition of neutrophilia
CNCCNc1nc(-c2cc(C(=O)NCc3ccccc3)ccc2C)c2ccc(=O)n(-c3c(F)cccc3F)c2n1 [Example 59, 3-(8-(2,6-difluorophenyl)-2-{[2-(methylamino)ethyl]amino}-7-oxo-7,8-dihydropyrido[2,3-d]pyrimidin-4-yl)-4-methyl-N-(phenylmethyl)benzamide] | statistically significant inhibition of neutrophilia
Cc1ccc(NC(=O)c2ccsc2)cc1-c1nc(NC2CC(C)(C)NC(C)(C)C2)nc2c1ccc(=O)n2-c1c(F)cccc1F [31(e), N-(3-{8-(2,6-difluorophenyl)-7-oxo-2-[(2,2,6,6-tetramethyl-4-piperidinyl)amino]-7,8-dihydropyrido[2,3-d]pyrimidin-4-yl}-4-methylphenyl)-3-thiophenecarboxamide] | statistically significant inhibition of neutrophilia
Cc1ccc(C(=O)NC2CCCC2)cc1-c1nc(N2CCC(N3CCC(C)CC3)CC2)nc2c1ccc(=O)n2-c1c(F)cccc1F [Example 169, N-cyclopentyl-3-[8-(2,6-difluorophenyl)-2-(4-methyl-1,4′-bipiperidin-1′-yl)-7-oxo-7,8-dihydropyrido[2,3-d]pyrimidin-4-yl]-4-methylbenzamide] | statistically nonsignificant inhibition of neutrophilia
Cc1ccc(C(=O)Nc2nccs2)cc1-c1nc(NCCCNC(C)(C)C)nc2c1ccc(=O)n2-c1c(F)cccc1F [Example 102, 3-[8-(2,6-difluorophenyl)-2-({3-[(1,1-dimethylethyl)amino]propyl}amino)-7-oxo-7,8-dihydropyrido[2,3-d]pyrimidin-4-yl]-4-methyl-N-1,3-thiazol-2-ylbenzamide] | statistically nonsignificant inhibition of neutrophilia
CCCNCCNc1nc(-c2cc(C(=O)NC3CC3)ccc2C)c2ccc(=O)n(-c3c(F)cccc3F)c2n1 [Example 24, N-cyclopropyl-3-(8-(2,6-difluorophenyl)-7-oxo-2-{[2-(propylamino)ethyl]amino}-7,8-dihydropyrido[2,3-d]pyrimidin-4-yl)-4-methylbenzamide] | statistically nonsignificant inhibition of neutrophilia
CCN(CC)CCCNc1nc(-c2cc(C(=O)NC)ccc2C)c2ccc(=O)n(-c3c(F)cccc3F)c2n1 [Example 119, 3-[2-{[3-(diethylamino)propyl]amino}-8-(2,6-difluorophenyl)-7-oxo-7,8-dihydropyrido[2,3-d]pyrimidin-4-yl]-N,4-dimethylbenzamide] | statistically significant inhibition of neutrophilia
